The text below walks through data of paper PMC4019636, “Rational Design of Berberine-Based FtsZ Inhibitors with Broad-Spectrum Antibacterial Activity” (PLoS ONE, 2014).

Molecules are shown by their SMILES. Where only a bound is given, the exact number is not on record here.

Common to all, as to type: cell-based
In one experiment the test system is B. subtilis 168. The experiment is described as follows: Antimicrobial susceptibility assay (broth microdilution MIC). The following applies: Bacillus subtilis; B. subtilis 168; Mueller Hinton broth, 18 h at 37°C; growth inhibited by ≥90%; read-out: MIC. From the text:
(§1) The bacterial strains S. aureus ATCC 29213, S. aureus ATCC 29247, S. aureus ATCC BAA-41, E. faecium ATCC 49624, E. faecium ATCC 700221, E. faecalis ATCC 29212, S. epidermidis ATCC 12228, E. coli ATCC 25922, and K. pneumoniae ATCC BAA-1144 used in the antimicrobial susceptibility assays were purchased from American Type Culture Collection (ATCC, USA). B. subtilis strain 168 was already available in our in-house collection. E. coli JM109 WM647 was kindly provided by Dr. W. Margolin (University of Texas-Houston Medical School). FM 4–64 was purchased from Invitrogen (Eugene, Oregon). All other chemicals and reagents were purchased from Sigma-Aldrich. Stock solutions were prepared in DMSO. The final percentage of DMSO in the assays was 1% (v/v) for all experiments.
(§2) Antimicrobial susceptibility tests were conducted in 96-well microplates using the broth microdilution procedure described in the Clinical and Laboratory Standards Institute (CLSI) guidelines. Cation-adjusted Mueller Hinton broth for S. aureus strain ATCC 29213, methicillin-resistant S. aureus strain ATCC BAA-41 and ampicillin-resistant S. aureus strain ATCC 29247, or brain heart infusion broth for antibiotic-susceptible E. faecium strain ATCC 49624 and vancomycin-resistant E. faecium strain ATCC 700221, or Mueller Hinton broth for antibiotic-susceptible strains B. subtilis strain 168, E. faecalis strain ATCC 29212 and E. coli strain ATCC 25922 were used in the assays. After incubation for 18 h at 37°C, the absorbance at 600 nm (A600) was recorded using a microplate reader (Bio-Rad laboratory Ltd., UK) and the percentage of bacterial cell inhibition with respect to vehicles (1% DMSO) was calculated. The MIC was defined as the lowest compound concentration at which the growth of bacteria was inhibited by ≥90%. Three independent assays were performed for each test.

In a further experiment the test system is S. aureus ATCC BAA-41. Described as above. The following applies: Staphylococcus aureus, ATCCBAA41; S. aureus ATCC BAA-41 (methicillin-resistant); 18 h at 37°C; growth inhibited by ≥90%; read-out: MIC.
Source text: as §1, §2

In experiment [1] the test system is K. pneumoniae ATCC BAA-1144. The description is as above. The settings on record: Klebsiella pneumoniae, ATCCBAA1144; K. pneumoniae ATCC BAA-1144 (Gram-negative, expressing AmpC β-lactamase); 18 h at 37°C; growth inhibited by ≥90%; read-out: MIC.
Source text: as §1, §2

In another experiment the test system is S. aureus ATCC 29213. The experiment is described as above. The settings on record: Staphylococcus aureus, ATCC29213; S. aureus ATCC 29213; cation-adjusted Mueller Hinton broth, 18 h at 37°C; growth inhibited by ≥90%; read-out: MIC.
Source text: as §1, §2

For experiment [2], the system named is S. epidermidis ATCC 12228. The description is as above. The settings on record: Staphylococcus epidermidis, ATCC12228; S. epidermidis ATCC 12228; 18 h at 37°C; growth inhibited by ≥90%; read-out: MIC.
Source text: as §1, §2

A further experiment concerns E. faecalis ATCC 29212. The experiment is described as above. The following applies: Enterococcus faecalis, ATCC29212; E. faecalis ATCC 29212; Mueller Hinton broth, 18 h at 37°C; growth inhibited by ≥90%; read-out: MIC.
Source text: as §1, §2

For the next experiment, the system named is E. coli ATCC 25922. The experiment is described as above. The following applies: Escherichia coli, ATCC25922; E. coli ATCC 25922; Mueller Hinton broth, 18 h at 37°C; growth inhibited by ≥90%; read-out: MIC.
Source text: as §1, §2

Another experiment has as its system S. aureus ATCC 29247. Described as above. The settings on record: Staphylococcus aureus, ATCC29247; S. aureus ATCC 29247 (ampicillin-resistant); 18 h at 37°C; growth inhibited by ≥90%; read-out: MIC.
Source text: as §1, §2

The test system of experiment [3] is vancomycin-susceptible and vancomycin-resistant E. faecium. The experiment is described as follows: Antimicrobial susceptibility assay, summary over E. faecium strains. The following applies: Enterococcus faecium.
Source text: as §1, §2

With `COc1ccc(OCCCOc2c(OC)ccc3cc4[n+](cc23)CCc2cc3c(cc2-4)OCO3)cc1` [Compound 3], the MIC (usually the smallest concentration in the dilution series that meets the test's criterion for growth inhibition) is 8 µg/mL with B. subtilis 168; 8 µg/mL in the experiment with S. aureus ATCC BAA-41; 128 µg/mL in [1]; 8 µg/mL with S. aureus ATCC 29213; 4 µg/mL in [2]; 32 µg/mL with E. faecalis ATCC 29212. Also, the MIC with E. coli ATCC 25922 was 128 µg/mL; in the experiment with S. aureus ATCC 29247, 8 µg/mL; in experiment [3] it was 4 to 16 µg/mL.

As to `COc1ccc2cc3[n+](cc2c1OCCCOc1ccc(Cl)cc1)CCc1cc2c(cc1-3)OCO2` [Compound 2], the MIC is 4 µg/mL in the experiment with B. subtilis 168; 2 µg/mL in the experiment with S. aureus ATCC BAA-41; 64 µg/mL in [1]; 2 µg/mL in the experiment with S. aureus ATCC 29213; 2 µg/mL in experiment [2]; 4 µg/mL with E. faecalis ATCC 29212. In addition, the MIC was 32 µg/mL in the experiment with E. coli ATCC 25922, 2 µg/mL in the experiment on S. aureus ATCC 29247 and 4 to 16 µg/mL in experiment [3].

For the molecule `COc1ccc2cc3[n+](cc2c1OCCCOc1ccc([N+](=O)[O-])cc1)CCc1cc2c(cc1-3)OCO2` [Compound 5], the MIC in the experiment on B. subtilis 168 worked out at 8 µg/mL; in the experiment with S. aureus ATCC BAA-41 it was 2 µg/mL; in experiment [1], 64 µg/mL; in the experiment with S. aureus ATCC 29213 it was 2 µg/mL; in [2], 2 µg/mL; in the experiment on E. faecalis ATCC 29212 it was 8 µg/mL. Also, the MIC in the experiment with E. coli ATCC 25922 is 32 µg/mL; with S. aureus ATCC 29247, 2 µg/mL; in [3], 4 to 16 µg/mL.

Consider `COc1ccc2cc3[n+](cc2c1OC)CCc1cc2c(cc1-3)OCO2` [Berberine, Berberine chloride], for which the MIC in the experiment with B. subtilis 168 is 128 µg/mL; in the experiment on S. aureus ATCC BAA-41, 196 µg/mL; in experiment [1], more than 500 µg/mL; in the experiment with S. aureus ATCC 29213, 128 µg/mL; in experiment [2] it was 128 µg/mL; in the experiment with E. faecalis ATCC 29212, more than 196 µg/mL. The MIC in the experiment with E. coli ATCC 25922 was more than 500 µg/mL; in the experiment on S. aureus ATCC 29247 it was 128 µg/mL; in experiment [3] it was more than 196 µg/mL.

For `COc1ccc2cc3[n+](cc2c1OCCCCOc1ccccc1)CCc1cc2c(cc1-3)OCO2` [Compound 6], the MIC came to 8 µg/mL in the experiment with B. subtilis 168; 4 µg/mL in the experiment with S. aureus ATCC BAA-41; 128 µg/mL in experiment [1]; 4 µg/mL in the experiment on S. aureus ATCC 29213; 4 µg/mL in experiment [2]; 16 µg/mL in the experiment with E. faecalis ATCC 29212. The results for the MIC (with E. coli ATCC 25922; in the experiment on S. aureus ATCC 29247; in experiment [3]) were 96 µg/mL, 4 µg/mL and 4 to 16 µg/mL, respectively.

For the molecule `COc1ccc2cc3[n+](cc2c1OCCCOc1ccccc1C)CCc1cc2c(cc1-3)OCO2` [Compound 4], the MIC in the experiment on B. subtilis 168 amounted to 8 µg/mL; in the experiment on S. aureus ATCC BAA-41 it was 4 µg/mL; in experiment [1], 64 µg/mL; with S. aureus ATCC 29213, 4 µg/mL; in [2], 4 µg/mL; in the experiment on E. faecalis ATCC 29212, 8 µg/mL. In addition, the MIC in the experiment on E. coli ATCC 25922 is 96 µg/mL; in the experiment with S. aureus ATCC 29247, 4 µg/mL; in experiment [3] it was 4 to 16 µg/mL.

For `COc1ccc2cc3[n+](cc2c1OCCCOc1ccccc1)CCc1cc2c(cc1-3)OCO2` [Compound 1], the MIC in the experiment with B. subtilis 168 was 8 µg/mL; with S. aureus ATCC BAA-41 it was 4 µg/mL; in experiment [1], 128 µg/mL; with S. aureus ATCC 29213, 4 µg/mL; in experiment [2], 4 µg/mL; in the experiment on E. faecalis ATCC 29212, 16 µg/mL. The MIC is 96 µg/mL in the experiment on E. coli ATCC 25922, 4 µg/mL in the experiment on S. aureus ATCC 29247 and 4 to 16 µg/mL in experiment [3].
